From ChEMBL document CHEMBL5331061, “Design, synthesis, and biological evaluation of Wee1 kinase degraders” (Eur J Med Chem, 2022)
Calls of active or inactive are those of the source. The calls are words filed in the database; no cut-off is given here.

Tests used:
MV4-11 [1] = test: Induction of […] in human MV4-11 cells assessed as change in gammaH2AX level at 12.5 to 200 nM measured after 24 hrs by Western blot analysis; format: functional, cell-based; conditions: dose 12.5-200 nM
MV4-11 [2] = test: Effect on PLK1 mRNA expression in human MV4-11 cells at 50 nM measured upto 72 hrs by qRT-PCR assay; format: functional, cell-based
MV4-11 [3] = test: Induction of apoptosis in human MV4-11 cells assessed as increase in early apoptotic cells incubated for 48 hrs by annexin V and PI staining based flow cytometry analysis; format: functional, cell-based; conditions: dose 12.5-200 nM
[4] = Downregulation of MAP3K4 in human MV4-11 cells assessed as 2 log fold change at 50 nM measured after 2 hrs by proteomic analysis; format: functional
[5] = target: Cyclin-dependent kinase 1 (Homo sapiens) (UniProt P06493); test: Inhibition of CDK1 phosphorylation in human MV4-11 cells by measuring residual activity at 12.5 nM measured after 24 hrs by Western blot assay; format: cell-based
Chain of Cyclin-dependent kinase 1 (Homo sapiens) (P06493 whole entry, looked up): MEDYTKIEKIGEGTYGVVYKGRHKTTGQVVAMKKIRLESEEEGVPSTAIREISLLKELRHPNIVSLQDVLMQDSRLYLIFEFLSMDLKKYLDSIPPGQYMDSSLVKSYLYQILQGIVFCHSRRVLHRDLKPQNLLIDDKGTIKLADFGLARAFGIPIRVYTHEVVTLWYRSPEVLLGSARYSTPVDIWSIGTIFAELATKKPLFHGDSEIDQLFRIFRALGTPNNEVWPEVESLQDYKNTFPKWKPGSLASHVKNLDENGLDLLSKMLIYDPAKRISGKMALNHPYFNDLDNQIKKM

[6] = Half life in ICR mouse at 10 mg/kg, iv measured upto 360 mins; format: ADME, organism-based; conditions: in vivo
[7] = target: T1, Membrane-associated tyrosine- and threonine-specific cdc2-inhibitory kinase (Homo sapiens) (UniProt Q99640); test: Induction of PKMYT1 degradation in human MV4-11 cells at 50 nM measured after 3 hrs by Western blot assay; format: cell-based
T1 sequence (whole entry): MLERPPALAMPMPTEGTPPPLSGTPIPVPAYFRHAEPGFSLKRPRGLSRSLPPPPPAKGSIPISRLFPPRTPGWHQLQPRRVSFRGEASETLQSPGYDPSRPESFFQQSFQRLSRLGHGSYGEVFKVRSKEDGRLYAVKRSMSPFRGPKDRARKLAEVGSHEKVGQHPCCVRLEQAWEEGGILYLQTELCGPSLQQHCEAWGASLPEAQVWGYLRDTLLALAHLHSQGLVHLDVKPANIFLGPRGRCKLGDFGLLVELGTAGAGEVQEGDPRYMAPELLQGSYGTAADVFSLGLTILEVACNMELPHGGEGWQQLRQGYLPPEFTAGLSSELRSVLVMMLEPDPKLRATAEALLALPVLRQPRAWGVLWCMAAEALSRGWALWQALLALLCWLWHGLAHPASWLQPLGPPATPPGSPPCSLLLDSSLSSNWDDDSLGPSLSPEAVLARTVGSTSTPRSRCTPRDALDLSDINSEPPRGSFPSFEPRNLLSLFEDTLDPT

MV4-11 [8] = test: Induction of apoptosis in human MV4-11 cells assessed as increase in late apoptotic cells incubated for 48 hrs by annexin V and PI staining based flow cytometry analysis; format: functional, cell-based; conditions: dose 12.5-200 nM
[9] = target: Cyclin-dependent kinase 1 (Homo sapiens) (UniProt P06493); test: Inhibition of CDK1 in human MV4-11 cells assessed as dephosphorylation at 50 nM pretreated for 2 hrs followed by replacement with fresh medium and measured after 24 hrs by Western blot method; format: cell-based; conditions: time 26.0 hrs
[10] = Reduction in PKMYT1 level in human MV4-11 cells by measuring residual activity at 25 nM measured after 24 hrs by Western blot assay (reference value: 100%); format: functional
[11] = Reduction in PKMYT1 level in human MV4-11 cells by measuring residual activity at 50 nM measured after 24 hrs by Western blot assay (reference value: 100%); format: functional
[12] = target: Cyclin-dependent kinase 1 (Homo sapiens) (UniProt P06493); test: Inhibition of CDK1 phosphorylation in human MV4-11 cells by measuring residual activity at 200 nM measured after 24 hrs by Western blot assay; format: cell-based
MV4-11 [13] = test: Induction of apoptosis in human MV4-11 cells assessed as cleaved caspase-3 expression at 100 nM incubated for 24 hrs by Western blot analysis; format: functional, cell-based
[14] = AUClast in ICR mouse at 10 mg/kg, iv measured upto 360 mins; format: ADME, organism-based; set-up: dose 10 mg/kg, time < 360 min, route iv; conditions: in vivo
[15] = target: Cyclin-dependent kinase 1 (Homo sapiens) (UniProt P06493); test: Inhibition of CDK1 phosphorylation in human MV4-11 cells by measuring residual activity at 100 nM measured after 24 hrs by Western blot assay; format: cell-based
[16] = Downregulation of PLK1 in human MV4-11 cells assessed as 2 log fold change at 50 nM measured after 2 hrs by proteomic analysis; format: functional
MV4-11 [17] = test: Induction of apoptosis in human MV4-11 cells assessed as cleaved PARP expression at 100 nM incubated for 24 hrs by Western blot analysis; format: functional, cell-based
MV4-11 [18] = test: Effect on PKMYT1 mRNA expression in human MV4-11 cells at 50 nM measured upto 72 hrs by qRT-PCR assay; format: functional, cell-based
MV4-11 [19] = test: Effect on Wee1 mRNA expression in human MV4-11 cells at 50 nM measured upto 72 hrs by qRT-PCR assay; format: functional, cell-based
[20] = target: Cyclin-dependent kinase 1 (Homo sapiens) (UniProt P06493); test: Inhibition of CDK1 phosphorylation in human MV4-11 cells by measuring residual activity at 50 nM measured after 24 hrs by Western blot assay; format: cell-based
[21] = target: Cyclin-dependent kinase 1 (Homo sapiens) (UniProt P06493); test: (§1) Inhibition of CDK1 phosphorylation in human MV4-11 cells assessed as reduction in phosphorylated CDK1 level by measuring residual activity at 50 uM pretreated for 2 hrs with proteasome inhibitor lenalidomide followed by incubation with compound for 3 hrs by Western blot analysis (reference value: 29%); format: cell-based
[22] = Reduction in PKMYT1 level in human MV4-11 cells by measuring residual activity at 12.5 nM measured after 24 hrs by Western blot assay (reference value: 100%); format: functional
[23] = target: Cyclin-dependent kinase 1 (Homo sapiens) (UniProt P06493); test: Inhibition of CDK1 phosphorylation in human MV4-11 cells assessed as reduction in phosphorylated CDK1 level by measuring residual activity at 50 uM pretreated for 2 hrs with proteasome inhibitor Iberdomide followed by incubation with compound for 3 hrs by Western blot analysis (reference value: 29%); format: cell-based
MV4-11 [24] = test: Induction of apoptosis in human […] -/- MV4-11 cells at 50 to 400 nM measured after 48 hrs by AnnexinV/PI staining based flow cytometry analysis; format: functional, cell-based; conditions: dose 50-400 nM
[25] = target: Cyclin-dependent kinase 1 (Homo sapiens) (UniProt P06493); test: as §1, with “carfilzomib” for “lenalidomide”; format: cell-based
[26] = Observed AUCinfinity ICR mouse at 10 mg/kg, iv measured upto 360 mins; format: ADME, organism-based; set-up: dose 10 mg/kg, time < 360 min, route iv; conditions: in vivo
[27] = target: Cyclin-dependent kinase 1 (Homo sapiens) (UniProt P06493); test: Inhibition of CDK1 phosphorylation in human MV4-11 cells by measuring residual activity at 25 nM measured after 24 hrs by Western blot assay; format: cell-based
[28] = Observed MRTinfinity ICR mouse at 10 mg/kg, iv measured upto 360 mins; format: ADME, organism-based; conditions: in vivo
MV4-11 [29] = test: Induction of cell cycle arrest in human MV4-11 cells assessed as accumulation of cells at G0/G1 phase incubated for 24 hrs by […] PI staining based flow cytometry analysis; format: functional; conditions: dose 12.5-200 nM
MV4-11 [30] = test: Effect on PLK1 expression in human MV4-11 cells at IC50 measured after 6 hrs by Western blot analysis; format: functional, cell-based
[31] = Reduction in PKMYT1 level in human MV4-11 cells by measuring residual activity at 100 nM measured after 24 hrs by Western blot assay (reference value: 100%); format: functional
[32] = Reduction in PKMYT1 level in human MV4-11 cells by measuring residual activity at 200 nM measured after 24 hrs by Western blot assay (reference value: 100%); format: functional
[33] = Downregulation of JAK2 in human MV4-11 cells assessed as 2 log fold change at 50 nM measured after 2 hrs by proteomic analysis; format: functional
[34] = target: Cyclin-dependent kinase 1 (Homo sapiens) (UniProt P06493); test: Inhibition of CDK1 phosphorylation in human MV4-11 cells assessed as reduction in phosphorylated CDK1 level by measuring residual activity at 50 uM pretreated for 2 hrs with proteasome inhibitor Bortezomib followed by incubation with compound for 3 hrs by Western blot analysis (reference value: 29%); format: cell-based
[35] = target: Serine/threonine-protein kinase PLK1 (Homo sapiens, UniProt P53350); test: Inhibition of PLK1 (unknown origin)
Chain of Serine/threonine-protein kinase PLK1 (P53350 whole entry): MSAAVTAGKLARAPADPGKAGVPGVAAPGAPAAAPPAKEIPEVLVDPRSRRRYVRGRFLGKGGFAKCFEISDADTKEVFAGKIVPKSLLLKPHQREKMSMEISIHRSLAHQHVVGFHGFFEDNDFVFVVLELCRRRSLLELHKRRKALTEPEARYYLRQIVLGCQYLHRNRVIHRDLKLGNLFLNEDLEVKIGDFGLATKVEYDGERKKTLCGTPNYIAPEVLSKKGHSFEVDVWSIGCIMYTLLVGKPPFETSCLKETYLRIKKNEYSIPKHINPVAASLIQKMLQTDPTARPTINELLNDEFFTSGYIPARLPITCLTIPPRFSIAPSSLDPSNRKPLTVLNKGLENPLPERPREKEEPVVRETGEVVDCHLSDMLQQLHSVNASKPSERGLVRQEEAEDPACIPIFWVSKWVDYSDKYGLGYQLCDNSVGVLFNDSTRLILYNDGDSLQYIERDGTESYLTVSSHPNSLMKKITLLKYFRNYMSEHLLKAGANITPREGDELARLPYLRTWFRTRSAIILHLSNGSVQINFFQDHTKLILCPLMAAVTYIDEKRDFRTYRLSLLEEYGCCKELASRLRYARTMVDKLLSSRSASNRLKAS

With C=CCn1c(=O)c2cnc(Nc3ccc(N4CCN(CCCCNc5cccc6c5C(=O)N(C5CCC(=O)NC5=O)C6=O)CC4)cc3)nc2n1-c1cccc(C(C)(C)O)n1 (stereo not given) the Activity (MV4-11 [1]) was “inactive”, the Activity (MV4-11 [2]) was “inactive” and the Activity (MV4-11 [3]) was “Dose-Dependent Effect”. For the same compound, the FC [4] was -0.06, the Activity [5] was 88% and the half-life [6] was 78.6 min. For the same compound, the Activity [7] was “Active”, the Activity (MV4-11 [8]) was “Dose-Dependent Effect” and the inhibition [9] was “Active”. It also gave an Activity [10] of 99%, an Activity [11] of 38% and an Activity [12] of 20%. The Activity (MV4-11 [13]) was “Active”, the AUC(0-t) at 6 h [14] was 4580 ng·h/mL and the Activity [15] was 22%. For the same compound, the FC [16] was 0.38, the Activity (MV4-11 [17]) was “Active” and the Activity (MV4-11 [18]) was “inactive”. For the same compound, the Activity (MV4-11 [19]) was “inactive”, the Activity [20] was 50% and the Activity [21] was 102%. For the same compound, the Activity [22] was 113%, the Activity [23] was 75% and the Activity (MV4-11 [24]) was “inactive”. It also gave an Activity [25] of 96%, an AUC(0-inf) [26] of 4660 ng·h/mL and an Activity [27] of 80%. For the same compound, the MRT inf [28] was 56.6 min, the Activity (MV4-11 [29]) was “Dose-Dependent Effect” and the Activity (MV4-11 [30]) was “inactive”. It also gave an Activity [31] of 37%, an Activity [32] of 25% and an FC [33] of -0.1. The Activity [34] was 120% and the IC50 [35] was 2970 nM.
